Key:
perennial ryegrass [1] = assay: Example 5 greenhouse white clover and turf test, grass damage; format: in vivo, Lolium perenne; conditions: sprayed twice at 100 ml/m^2, seven days after first spraying
Procedure: (§1) Unless otherwise specified, all of the iron solutions were made using the same molar concentration of iron ion as chelating agent. In the liquid formulations samples were prepared by diluting a metal chelate, iron HEDTA (Neu 1173H) or iron EDTA to the desired level of iron as specified using stirring. Neu 1173H contains the stabilizer sodium citrate at 1.5% prior to dilution. Dilutions of iron HEDTA to the level of 0.25% Fe incorporate 0.08% sodium citrate into the spray solutions. KCl was then diluted and added to the diluted metal chelate.
(§2) In the dry formulations, the iron chelate was simply blended with KCl and with other fertilizer ingredients. Samples were usually prepared within 48 hours of treatment. All of the outside tests were done on areas of grass and white clover that were at least 2 months old. For the greenhouse tests, white clover and dandelion were grown in a commercial greenhouse mix using supplemental lighting and heating. Each plant was grown in a 2¼ inch pot to a minimum diameter of 15-20 cm. Perennial ryegrass was grown in 2¼ inch pots in the same greenhouse conditions as above and they are at least 4 weeks old at the time of application. […]
(§3) All plant damage was visually assessed using a percentage rating scale from 0 (no injury) to 100% (death). […] Percentage control was calculated from the respective weed cover data (e.g. preferably using the Henderson & Tilton formula). […]

white clover = assay: Example 5 greenhouse white clover and turf test, white clover damage; format: in vivo, Trifolium repens; conditions: sprayed twice at 100 ml/m^2, seven days after first spraying
Procedure: as §1, §2, §3

perennial ryegrass [2] = assay: Example 10 greenhouse dandelion and turf test with sodium sulfate, grass damage; format: in vivo, Lolium perenne; conditions: sprayed once at 200 ml/m^2, six days after first spraying
Procedure: as §1, §2, §3

dandelion = assay: Example 10 greenhouse dandelion and turf test with sodium sulfate, dandelion damage; format: in vivo, Taraxacum officinale; conditions: sprayed once at 200 ml/m^2, six days after first spraying
Procedure: as §1, §2, §3

Structure (SMILES) | Grass Damage (%) (perennial ryegrass [1]) | White Clover Damage (%) (white clover) | Grass Damage (%) (perennial ryegrass [2]) | Dandelion damage (%) (dandelion)
[Cl-].[K+] [KCl 2%, potassium chloride] | 0% | 0% |  | 
O=S(=O)([O-])[O-].[Na+].[Na+] [Na2SO4 2%, sodium sulfate] |  |  | 4% | 0%

From patent publication US20190124928A1, “ENHANCED HERBICIDAL COMPOSITIONS OF TRANSITION METAL CHELATES” (W. Neudorff GMBH KG, priority 2016, published 2019)
